# Literature values as cited in patent EP0811056B1, “PEPTIDES FOR TISSUE AND CELL CULTURE MEDIA” (QUEST INTERNATIONAL B.V., priority 1995, dated 1996).
# Conditions: on a glutamine basis
substance,measurement,value
Glycyl-L-glutamine,amount of the dipeptide needed compared with free glutamine to obtain the same result,up to 6 times
